“Also recorded” adds a separate entry of the source.
Tests used:
Type in all cases: cell-based, human
[1] = system: ME-180 cells; assay: Toxicity & proliferation experiments, ME-180 cell counting; conditions: for effect on ME-180 cell growth: 1 nM, 10 nM, and 100 nM; for ME-180 cell number / cell growth versus no retinoic acid (negative control): 1 μM or 10 μM (micromolar concentrations)
Description: Cell Lines. Human cervical epithelial cells (ME-180, ATCC) were propagated in culture at 37° C. in a 5% CO2 atmosphere in McCoy's 5A media (Invitrogen) with 10% heat-inactivated fetal bovine serum (Invitrogen). All trans-, 9-cis-, and 13-cis-retinoic acids were purchased from ICN Biomedicals. Retinoic acid stock solutions were made up in DMSO.
Toxicity & Proliferation Experiments. Cellular toxicity/proliferation experiments were performed by first washing the ME-180 cells with HBSS, and adding 3 mL of trypsin (0.25%) with EDTA to the T75 flask for 15 minutes. ME-180 cells in trypsin were added to 7 mL of McCoy's 5A media with 10% FBS. ME-180 cells were centrifuged for 5 minutes, and the supernatant was removed. ME-180 cells were resuspended in 10 mL of McCoy's 5A media with 10% FBS for counting. ME-180 cells were centrifuged for 5 minutes, and the supernatant was removed. ME-180 cells were resuspended at 6×10^4 cells per mL (62 mL total volume). One milliliter was added to each of 60 wells in a total of three 24-well plates. ME-180 cells were allowed to adhere to the wells overnight. The media was then removed from the ME-180 cells, and the cells were washed one time with 1 mL of HBSS. One mL of McCoy's 5A media with 10% FBS was added in duplicate on each plate containing the retinoic acids in various concentrations (0-10 μM). ME-180 cells in each plate were counted on day 1, 2, or 3 after the addition of the retinoic acid-containing media.
Cell counting. Media was removed from the ME-180 cells, and the cells were washed one time with 1 mL of HBSS. Trypsin was added (150 μL) to each well for ˜15 minutes to remove cells. One mL of McCoy's 5A media with 10% FBS was added to each well. ME-180 cells were mixed thoroughly and counted using a hemocytometer.
Cell Proliferation of ME-180 Cells. ME-180 cells were incubated with vitamin A derivatives for a period of up to 3 days. ME-180 cells were counted on each day.

[2] = system: P2Y2 receptor gene; assay: RT-PCR expression assay of P2Y2 in ME-180 cells; conditions: 100 nM
Description: (§1) RNA Extraction from ME-180 cells. ME-180 cells were plated at 2×10^5 cells per T25 flask (5 mL total volume) and were allowed to propagate for four days. On day four, the media was removed. Five mL of McCoy's 5A media with 10% FBS containing 0, 10 nM, 100 nM, or 1 μM trans-retinoic acid were added to ME-180 cells in duplicate. ME-180 cells were incubated with these solutions for 4, 8, 16, or 24 hours. The media was removed, and 700 μL of lysis buffer was added to the flasks. The cells were scraped off of the flask with a cell scraper. The RNA was isolated using the Ambion RNAqueous kit according to the manufacturer's instructions. Precipitated RNA was resuspended in DEPC-treated water with 1 μL of RNase inhibitor. Total cervical RNA used as a control was purchased from Ambion, Inc.
(§2) Reverse Transcripton of RNA. Approximately 7 μL of RNA was incubated with 3 μL of primer at 80° C. for 10 minutes then immediately placed on ice. A master mix containing 4 μL DEPC water, 4 μL 5× reaction buffer, 1 μL dNTPs, 1 μL of RNase inhibitor, and 1 μL of reverse transcriptase was made for the reactions. Ten μL of master mix was added to the RNA/primer solution and placed at 42° C. for 2 hours. The resulting cDNA was incubated with 3.5 μL of NaOH solution at 70° C. for 10 minutes to hydrolyze the remaining RNA. Five μL of 0.5M Tris/EDTA was added to neutralize the solution. […]

[3] = system: estrogen receptor alpha (ER-α) gene; assay: RT-PCR expression assay of ER-α in ME-180 cells; conditions: 100 nM, no serum, 4, 8, and 16 hours, FIG. 4 lanes 4-6, listed as vitamin A
Description: as §1, with “Five mL of McCoy's 5A media with 10% FBS containing 0, 10 nM, 100 nM, or 1 μM trans-retinoic acid were added to ME-180 cells in duplicate.” left out
as §2, with “solution. To precipitate the cDNA, 125 μL of 3M NH4OAc, 5 μL of linear polyacrylamide, and 700 μL of absolute ethanol were added.” for “solution.”

[4] = system: vascular endothelial growth factor (VEGF); assay: RT-PCR expression assay of VEGF in ME-180 cells; conditions: 100 nM, 4, 8, and 16 hours, FIG. 5
Description: as §1, §2

[5] = system: mucin-4 (MUC-4); assay: RT-PCR expression assay of mucin-4 in ME-180 cells; conditions: 100 nM, absence of serum
Description: as §1, with “Five mL of McCoy's 5A media with 10% FBS containing 0, 10 nM, 100 nM, or 1 μM trans-retinoic acid were added to ME-180 cells in duplicate.” left out
as §2, with “solution. To precipitate the cDNA, 125 μL of 3M NH4OAc, 5 μL of linear polyacrylamide, and 700 μL of absolute ethanol were added.” for “solution.”

## CC1=C(/C=C/C(C)=C/C=C/C(C)=C\C(=O)O)C(C)(C)CCC1 [13-cis-retinoic acid]
[1]; up to 3 days, FIG. 1
  effect on ME-180 cell growth: little effect on cell growth
[1]; micromolar concentrations
  toxicity to ME-180 cells: toxic
[1]; micromolar concentrations, two days, FIG. 2
  ME-180 cell growth versus negative control: did not grow as well as the negative control

## CC1=C(/C=C/C(C)=C/C=C/C(C)=C/C(=O)O)C(C)(C)CCC1 [trans-retinoic acid]
[1]
  toxicity (overall conclusion of the experiments): nontoxic
[1]; 1 nM to 100 nM, up to 3 days, FIG. 1
  growth compared with cells exposed to other agents or to no agents: growing slightly faster
[1]; up to 3 days, FIG. 1
  effect on ME-180 cell growth: little effect on cell growth
[1]; two days, FIG. 2
  ME-180 cell number / cell growth versus no retinoic acid (negative control): more cells were present
[1]; two days, FIG. 2, listed as Vitamin A
  ME-180 cell number / cell growth versus no retinoic acid (negative control): increases cervical cell growth
[2]; in the absence of serum, FIG. 3 lanes 8-11
  P2Y2 expression (PCR product): increase in P2Y2 expression
[2]; in the presence of serum, FIG. 3 lanes 4-6
  P2Y2 expression (PCR product): increase in P2Y2 expression
[3]
  ER-α gene expression (PCR product): the ER-α gene was expressed; also recorded: increase in ER-α expression
[4]
  VEGF expression (PCR product): increased the expression
[5]; 4 hours or 8 hours, FIG. 6 lanes 4 and 5
  MUC-4 expression (PCR product): detectable
[5]; 16 hours, FIG. 6 lane 6
  MUC-4 expression (PCR product): decreases but is still detectable

## CC1=C(/C=C/C(C)=C\C=C\C(C)=C\C(=O)O)C(C)(C)CCC1 [9-cis-retinoic acid]
[1]; up to 3 days, FIG. 1
  effect on ME-180 cell growth: little effect on cell growth

From US20040063787A1, “Vaginal health products” (priority 2002, published 2004)
